# Measured values published in patent US11413254B2, “Application for (2R, 4R)-1,2,4-trihydroxyheptadec-16-yne in preparation of pharmaceutical composition for preventing or treating hepatic injury” (KAOHSIUNG MEDICAL UNIVERSITY, priority 2016, dated 2022).
# How the values were obtained:
# [1] = tested on: fatty acid disease induced by high fat feed; experiment: Hepatocellular injury and abnormalities of fatty acid disease induced by high fat feed, liver H&E staining; assay type: in vivo, C57BL/6 (B6) mice; details: male B6 mice, 100 mg/kg/day TY force fed, high fat feed (60% fat calorie) 18 weeks, FIG. 7
# Protocol: Example 7. Hepatocellular injury and abnormalities of fatty acid disease induced by high fat feed were treated with TY. 15 male, 8-10 weeks old of C57BL/6 (B6) mice (20-22 g) were randomly divided into 3 groups, and 4-5 B6 mice in each group, they were: 1. Healthy control group: fed with normal feed (the percentage of fat calories 5-6%); 2. Negative control group: fed with high fat feed (the percentage of fat calorie 60%) and force fed with physiological saline; 3. Experimental group: animals were given the same high fat feed as the Negative control group and force fed with 100 mg/kg/day of TY (high fat feed and TY). 1 week before liver injury was induced by the high fat feed, the experimental samples began to be given daily, respectively, the drug solvent of the same volume as TY to Groups 1 and 2, and 100 mg/kg of TY daily to Group 3. After 1 week, Groups 2 and 3 began to be given high fat feed, and continuously to be force fed with the drug solvent of the same volume as TY and 100 mg/kg/day of TY for 18 weeks. The mice began to fast on the 18th week, and 12 hours after fasting, all B6 mice were sacrificed. After the mice were sacrificed, livers were collected and soaked in formalin, stained with H&E staining, and then observed and images taken with a microscope.
# [2] = tested on: hepatocellular injury and abnormalities caused by alcohol (ethanol); experiment: Hepatocellular injury and abnormalities caused by alcohol (ethanol), liver H&E staining; assay type: in vivo; details: male Wistar rats, 100 mg/kg/day TY force fed, 50% ethanol, FIG. 4
# Protocol: Example 4. Hepatocellular injury and abnormalities caused by alcohol (ethanol) were treated by TY. Nine male Wistar rats (200-250 g) were randomly divided into 3 groups, 3 Wistar rats in each group, they were: 1. Healthy control group: force fed with drug solvent of the same volume as TY and force fed with physiological saline (2.5 mg/kg); 2. Negative control group (ethanol and physiological saline): force fed with physiological saline of the same volume as TY and force fed with 50% ethanol; 3. Experimental group (Ethanol and 100 mg/kg/day of TY): force fed 100 mg/kg/day of TY and force fed with 50% ethanol. First, food solvent or TY was administered by force feeding once daily, and the first force feeding was defined as the first day. One hour after force feeding on the fourth day, Group 1 was given physiological saline (2.5 mg/kg), Groups 2-3 were given 50% ethanol injection (2.5 mg/kg), respectively. The rats were force fed with ethanol again 12 hours after the first force feeding, and fasted 12 hours after the second force feeding. After being fasted for 12 hours, all Wistar rats were sacrificed. After the rats were sacrificed, livers were collected and soaked in formalin, and stained with H&E staining, then observed and images taken with a microscope.
# [3] = tested on: hepatocellular injury and necrosis caused by carbon tetrachloride; experiment: Hepatocellular injury and necrosis caused by carbon tetrachloride, liver H&E staining; assay type: in vivo; details: male Wistar rats, 100 mg/kg/day TY force fed, 20% carbon tetrachloride/olive oil i.p., FIG. 2
# Protocol: Example 2. Hepatocellular injury and necrosis caused by carbon tetrachloride were treated by TY. Nine male Wistar rats (200-250 g) were randomly divided into 3 groups, 3 Wistar rats in each group, they were: 1. Healthy control group: force fed with drug solvent of the same volume as TY and intraperitoneal injection of olive oil (2.5 mg/kg); 2. Negative control group (carbon tetrachloride and physiological saline): force fed with physiological saline and intraperitoneal injection of 20% carbon tetrachloride/olive oil of the same volume as TY; 3. Experimental group (carbon tetrachloride and 100 mg/kg/day of TY): force fed 100 mg/kg/day of TY and intraperitoneal injection of 20% carbon tetrachloride/olive oil. First, the physiological saline or TY was administered by force feeding once daily, and the first force feeding was defined as the first day. One hour after the force feeding on the fourth day, Group 1 was given intraperitoneal injection of olive oil (2.5 mg/kg), Groups 2-3 were given intraperitoneal injection of 20% carbon tetrachloride/olive oil (2.5 mg/kg), respectively. The rats were fasted 12 hours after injection, all Wistar rats were sacrificed 12 hours after fasting. After the rats were sacrificed, livers were collected and soaked in formalin, and stained with H&E staining, then observed and images were taken with a microscope.
# [4] = tested on: acute hepatitis caused by alcohol (ethanol); experiment: Acute hepatitis caused by alcohol (ethanol), serum liver function indicators; assay type: in vivo; details: male Wistar rats, 100 mg/kg/day TY force fed, 50% ethanol
# Protocol: Example 3. The effect of TY on the treatment of acute hepatitis caused by alcohol (ethanol). Nine male Wistar rats (200-250 g) were randomly divided into 3 groups, 3 Wistar rats in each group, they were: 1. Healthy control group: force fed with physiological saline (2.5 mg/kg) of the same volume as TY; 2. Negative control group (ethanol and physiological saline): force fed with physiological saline of the same volume as TY and force fed with 50% ethanol; 3. Experimental group (ethanol and 100 mg/kg/day of TY): force fed 100 mg/kg/day of TY and force fed with 50% ethanol. First, the drug solvent or TY was administered by force feeding once daily, and the first force feeding was defined as the first day. One hour after force feeding on the fourth day, Group 1 was given physiological saline (2.5 mg/kg), Groups 2-3 were given […] 50% ethanol (2.5 mg/kg), respectively. The rats were force fed with ethanol again 12 hours after the first force feeding, and fasted 12 hours after the second force feeding. After being fasted for 12 hours, all Wistar rats were sacrificed. Prior to being sacrificed, blood was collected from the heart and serum was separated for analysis of the biochemical function of the liver.
# [5] = tested on: fatty acid liver disease caused by high fat feed; experiment: Chronic hepatitis of fatty acid liver disease caused by high fat feed, serum liver function indicators; assay type: in vivo, C57BL/6 (B6) mice; details: male B6 mice, 100 mg/kg/day TY force fed, high fat feed (60% fat calorie) 18 weeks
# Protocol: Example 5. Chronic hepatitis of fatty acid liver disease caused by high fat feed was treated by TY. 15 male, 8-10 weeks old of C57BL/6 (B6) mice (20-22 g) were randomly divided into 3 groups, 4-5 B6 mice in each group, they were: 1. Healthy control group: fed with normal feed (the percentage of fat calories 5-6%); 2. Negative control group: fed with high fat feed (the percentage of fat calorie 60%) and physiological saline; 3. Experimental group: animals were given the same high fat feed as the Negative control group and force fed with 100 mg/kg/day of TY. 1 week before liver injury was induced by high fat feed, the experimental samples began to be given daily, respectively, drug solvent of the same volume as TY to Groups 1 and 2, and 100 mg/kg/daily of TY to Group 3. After 1 week, Groups 2 and 3 began to be given high fat feed, and continuously to be force fed with the drug solvent of the volume same as TY and 100 mg/kg/day of TY for 18 weeks. The mice began to fast on the 18th week, and 12 hours after fasting, all B6 mice were sacrificed. Prior to being sacrificed, blood was collected from the heart and serum was separated for analysis of the biochemical function of the liver.
# [6] = tested on: fatty acid liver disease induced by high fat feed; experiment: Serum triglyceride level of mice with fatty acid liver disease induced by high fat feed; assay type: in vivo, C57BL/6 (B6) mice; details: male B6 mice, 100 mg/kg/day TY force fed, high fat feed (60% fat calorie) 18 weeks, FIG. 6
# Description: Example 6. TY decreased serum triglyceride level of the mice with fatty acid liver disease induced by high fat feed. 15 male, 8-10 weeks old of C57BL/6 (B6) mice (20-22 g) were randomly divided into 3 groups, 4-5 B6 mice in each group, and they were: 1. Healthy control group: fed with normal feed (the percentage of fat calories 5-6%); 2. Negative control group: fed with high fat feed (the percentage of fat calorie 60%) and force fed with physiological saline (high fat feed and physiological saline); 3. Experimental group: animals were given the same high fat feed as the Negative control group and force fed with 100 mg/kg/day of TY (high fat feed and TY). 1 week before liver injury was induced by the high fat feed, the experimental samples began to be given daily, respectively, drug solvent of the same volume as TY to Groups 1 and 2, and 100 mg/kg of TY daily to Group 3. after 1 week, Groups 2 and 3 began to be given high fat feed, and continuously to be force fed with the drug solvent of the same volume as TY and 100 mg/kg/day of TY for 18 weeks. The mice began to fast on the 18th week, and 12 hours after fasting, all B6 mice were sacrificed. Prior to being sacrificed, blood was collected from the heart and serum was separated for analysis of the serum triglyceride level.
# [7] = tested on: acute hepatitis caused by carbon tetrachloride; experiment: Acute hepatitis caused by carbon tetrachloride, serum liver function indicators; assay type: in vivo; details: male Wistar rats, 100 mg/kg/day TY force fed, 20% carbon tetrachloride/olive oil i.p. on fourth day
# Protocol: Example 1. The effect of TY for the treatment of acute hepatitis caused by carbon tetrachloride was tested. Nine male Wistar rats (200-250 g) were randomly divided into 3 groups, 3 Wistar rats in each group, they were: 1. Healthy control group: force fed with drug solvent and intraperitoneal injection of olive oil (2.5 mg/kg) of the same volume as TY; 2. Negative control group (carbon tetrachloride and physiological saline): force fed with physiological saline and intraperitoneal injection of 20% carbon tetrachloride/olive oil of the same volume as TY; 3. Experimental group (carbon tetrachloride and 100 mg/kg/day of TY): force fed 100 mg/kg/day of TY and intraperitoneal injection of 20% carbon tetrachloride/olive oil. First, the drug solvent or TY was administered by force feeding once daily and the first force feeding was defined as the first day. One hour after force feeding on the fourth day, Group 1 was given intraperitoneal injection of olive oil (2.5 mg/kg), Groups 2-3 were given intraperitoneal injection of 20% carbon tetrachloride/olive oil (2.5 mg/kg), fasted 12 hours after injection, all Wistar rats were sacrificed 12 hours after fasting. Prior to being sacrificed, blood was collected from the heart and serum was separated for analysis of the biochemical function of the liver.
smiles,measurement,setting,value
"C#CCCCCCCCCCCC[C@@H](O)C[C@@H](O)CO [TY, (2R,4R)-1,2,4-trihydroxy heptadec-16-yne]",liver injury and tissue abnormalities caused by the high fat feed (H&E staining),[1],capable of reducing the liver injury and tissue abnormalities
same,liver injury and tissue abnormalities caused by ethanol (H&E staining),[2],capable of reducing the liver injury and tissue abnormalities
same,hepatocellular necrosis near the central vein caused by carbon tetrachloride (H&E staining),[3],capable of effectively reducing hepatocellular necrosis near the central vein
same,liver function indicator GOT/AST increased by ethanol,[4]; FIG. 3A,significantly decreased
same,liver function indicator GPI/ALT increased by ethanol,[4]; FIG. 3B,significantly decreased
same,liver function indicator GOT/AST increased by the high-fat feed,[5]; FIG. 5A,significantly decreased
same,liver function indicator GPT/ALT increased by the high-fat feed,[5]; FIG. 5B,significantly decreased
same,serum triglyceride level increased by the high-fat diet,[6],significantly decreased
same,liver function indicator GOT/AST increased by carbon tetrachloride,[7]; FIG. 1A,significantly decreased
same,liver function indicator GPI/ALT increased by carbon tetrachloride,[7]; FIG. 1B,significantly decreased
